Tested on: RAD51C bi-allelic mutated cells
Test: Toxicity of PARP inhibitor / topoisomerase I inhibitor exposure in cells with reduced or absent RAD51C function (FIG. 5, FIG. 6)
Assay type: cell-based
Settings: RAD51C bi-allelic mutated cells vs normal cells, mono-allelic RAD51C mutated cells and RAD51C-complemented cells

Structure (SMILES) | sensitivity (toxicity) of cells towards exposure to the PARP inhibitor (FIG. 5, means±SD, n=3) | sensitivity (toxicity) of cells towards exposure to the topoisomerase I inhibitor (FIG. 6, means±SD, n=4)
CN(C)CC(=O)Nc1ccc2[nH]c(=O)c3ccccc3c2c1 [PJ34] | increased toxicities | 
CC[C@@]1(O)C(=O)OCc2c1cc1n(c2=O)Cc2cc3ccccc3nc2-1 [camptothecin] |  | increased toxicities

From patent US20190161807A1, “RAD51C as a Human Cancer Susceptibility Gene” (Heinrich-Heine-Universität Düsseldorf, priority 2010, published 2019)
